The source of these data is article PMC10307805, “DprE2 is a molecular target of the anti-tubercular nitroimidazole compounds pretomanid and delamanid” (Nature Communications, 2023).

Usually Ki stands for the dissociation constant of the complex between target and ligand, obtained from inhibition or displacement. Lower therefore signals tighter binding. By IC50 is commonly meant the point on the concentration scale where inhibition reaches its midpoint.

Assay type in all cases: biochemical
The target in experiment [1] is T1, DprE2 (decaprenylphosphoryl-2-keto-β-D-erythro-pentose reductase) (Mycobacterium tuberculosis, UniProt P9WGS9).
T1 sequence (P9WGS9 whole entry, looked up): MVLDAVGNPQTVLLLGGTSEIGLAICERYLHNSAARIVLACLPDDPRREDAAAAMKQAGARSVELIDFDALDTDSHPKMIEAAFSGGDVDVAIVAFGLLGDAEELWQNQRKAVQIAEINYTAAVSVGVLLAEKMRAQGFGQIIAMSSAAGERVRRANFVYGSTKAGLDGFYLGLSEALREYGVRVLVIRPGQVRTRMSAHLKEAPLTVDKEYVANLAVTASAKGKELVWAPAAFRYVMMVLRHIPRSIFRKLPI
Experiment [2] concerns the target T1, DprE2 (decaprenylphosphoryl-2-keto-β-D-erythro-pentose reductase). The experiment in a line: […]; also IC50 […] and radiolabeled DPR epimerization TLC.
For experiment [3], the target named is T2, Ddn (deazaflavin F420-dependent nitroreductase) (Mycobacterium tuberculosis, UniProt P9WP15).
T2 construct: recombinant Ddn, SUMO tag removed
T2 sequence (P9WP15 whole entry): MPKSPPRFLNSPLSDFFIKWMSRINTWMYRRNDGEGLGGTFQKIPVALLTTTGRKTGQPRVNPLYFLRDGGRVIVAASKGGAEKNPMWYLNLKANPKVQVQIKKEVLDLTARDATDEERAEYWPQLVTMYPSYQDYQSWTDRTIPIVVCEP

For experiment [4], the target named is DprE1 (decaprenylphosphoryl-β-D-ribose oxidase) (Mycobacterium tuberculosis, UniProt P9WJF1). The experiment in a line: resazurin reduction fluorescence assay with GGPR (also […] on Mt-DprE1-DprE2 complex). Background: The colour change of resazurin is a common sign of viable cells or microbes.
DprE1 (decaprenylphosphoryl-β-D-ribose oxidase), sequence (P9WJF1 whole entry): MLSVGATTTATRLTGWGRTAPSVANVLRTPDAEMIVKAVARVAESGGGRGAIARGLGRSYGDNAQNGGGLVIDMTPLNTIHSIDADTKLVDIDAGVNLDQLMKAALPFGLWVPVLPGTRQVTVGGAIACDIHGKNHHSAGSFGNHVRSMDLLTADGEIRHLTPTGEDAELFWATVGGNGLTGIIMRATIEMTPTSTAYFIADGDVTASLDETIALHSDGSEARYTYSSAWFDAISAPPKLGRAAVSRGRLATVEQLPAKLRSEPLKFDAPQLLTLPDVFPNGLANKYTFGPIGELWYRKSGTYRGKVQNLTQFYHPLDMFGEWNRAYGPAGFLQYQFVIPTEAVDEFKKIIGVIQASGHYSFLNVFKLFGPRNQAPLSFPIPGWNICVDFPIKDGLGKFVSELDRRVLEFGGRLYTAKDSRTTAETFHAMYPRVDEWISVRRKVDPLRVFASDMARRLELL

For `NC(=O)C1=CN([C@@H]2O[C@H](COP(=O)(O)OP(=O)(O)OC[C@H]3O[C@@H](n4cnc5c(N)ncnc54)[C@H](OP(=O)(O)O)[C@@H]3O)[C@@H](O)[C@H]2O)C=CC1` [NADPH], the “NADPH oxidation fluorescence assay with NADPH titration” value in experiment [1] is “DprE2 activity was monitored through a change in fluorescence due to the oxidation of the DprE2 cofactor, NADPH”.

Ddn-activated pretomanid showed a Ki in experiment [2] of 1.5 ± 0.4 µM.

For the compound `O=[N+]([O-])c1cn2c(n1)OC[C@@H](OCc1ccc(OC(F)(F)F)cc1)C2` [pretomanid], the “pro-drug activation by purified Ddn with Fgd1/F420, read out by DprE2 inhibition” value in experiment [3] is reported as “upon activation of the pretomanid by Ddn, there was a dose-dependent reduction in Mt-DprE2 activity”.

For BTZ, 11.8 ± 0.7 µM corresponded to half-maximal inhibition in experiment [4] (IC50).
